Publication PMC4393269, “Carvacrol Codrugs: A New Approach in the Antimicrobial Plan” (PLoS ONE, 2015)
In brackets after ≈: the same amount, converted by molar mass. Where a name gives a salt, the structure may show the parent alone.

Tests used:
[1] = tested on: C. albicans ATCC 10231; assay: Broth microdilution MIC/MFC; assay type: cell-based; conditions: Candida albicans, ATCC10231; for MIC: C. albicans ATCC 10231, 24–48 h at 37°C, read-out: MIC; for MFC: C. albicans ATCC 10231, read-out: MFC
Procedure: (§1) Two Gram-positive (S. aureus ATCC 29213 and S. epidermidis ATCC 35984) and two Gram-negative (E. coli ATCC 8739 and P. aeruginosa ATCC 9027) strains, and one fungal strain (C. albicans ATCC 10231) were used for the detection of antibacterial activity of carvacrol, NAC, Ac-Cys(Allyl)-OH, and carvacrol codrugs 1–10. All tested compounds were dissolved in 20% DMSO to prepare the stock solution (100 mg/mL). The final concentration of DMSO in each well appeared to be not toxic for all studied microorganisms, as confirmed by the solvent control test included in the study.
The MIC detection of C. albicans ATCC 10231 was performed using the broth microdilution method according to EUCAST guidelines in RPMI 1640 plus 2% glucose with a final inoculum of 1–5 x 10^5 CFU/mL for 24–48 h at 37°C. The Minimum Fungicidal Concentration (MFC) was determined as the lowest concentration of substances at which no fungal growth occurred on Sabouraud agar plates.
(§2) Data were obtained from at least three independent experiments performed in duplicate. The susceptibility of the bacterial strains against ciprofloxacin was used as an internal standard during MIC determinations.

[2] = Hemolytic activity; assay type: cell-based, human; conditions: human, human red blood cells (h-RBC), 4% suspension, pH 7.3; 4% h-RBC in PBS, 1 h at 37°C, at the compound's MIC values
Procedure: (§3) Experimental protocols to study hemolysis on human red cells were approved by Ethics Committee of the University “G. d’Annunzio” Chieti-Pescara. Human red cells were from two volunteers, who signed the informed consent for this study.
(§4) Hemolytic activity of carvacrol codrugs 1–10 was tested against human red blood cells (h-RBC). Fresh human blood, collected with EDTA, was centrifuged at 3000 rpm for 5 min then washed three times with PBS pH 7.3. Red blood cells were diluted to 4% in PBS and incubated with different codrugs concentrations ranging from 25 to 0.05 mg/mL. After 1 h of incubation at 37°C, the suspensions were sedimented by centrifugation and the release of hemoglobin was determined by absorbance measurement at 405 nm and compared with a 0% hemolysis control (PBS) and a 100% hemolysis control (PBS with 1% v/v Triton X-100). The percentage of hemolysis was calculated using the following equation: Hemolysis (%) = [(OD405sample - OD4050% lysis control)/(OD405100% lysis control - OD4050% lysis contro)] X 100

[3] = tested on: human red blood cells (h-RBC); assay: Hemolytic activity; assay type: cell-based; conditions: 4% h-RBC, 1 h at 37°C
Procedure: as §3, §4

[4] = tested on: P. aeruginosa ATCC 9027; assay: Broth microdilution MIC/MBC on planktonic cells; assay type: cell-based; conditions: Pseudomonas aeruginosa, ATCC9027; for MIC: P. aeruginosa ATCC 9027, 24 h at 37°C, read-out: MIC; for MBC: P. aeruginosa ATCC 9027, read-out: MBC
Procedure: as §1
(§5) The effects of carvacrol codrugs 1–10 and reference compounds on planktonic cells were evaluated by Minimum Inhibitory Concentration (MIC) and Minimum Bactericidal Concentration (MBC) determination using the broth microdilution method according to EUCAST guidelines. Bacterial suspensions, grown in Mueller–Hinton Broth (MHB) at logarithmic phase, were incubated on microtiter plates at a concentration of 5 x 10^5 CFU/mL, with several dilutions (0.07–40 mg/mL) for 24 h at 37°C. The MIC was defined as the lowest concentration of substances giving a complete inhibition of visible growth in comparison with a control well, and the MBC was determined as the lowest concentration at which no bacterial growth occurred on Mueller–Hinton Agar plates.
as §2

[5] = tested on: E. coli ATCC 8739; assay: Broth microdilution MIC/MBC on planktonic cells; assay type: cell-based; conditions: Escherichia coli, ATCC8739; for MIC: E. coli ATCC 8739, 24 h at 37°C, read-out: MIC; for MBC: E. coli ATCC 8739, read-out: MBC
Procedure: as §1, §5, §2

[6] = tested on: S. epidermidis ATCC 35984; assay: Broth microdilution MIC/MBC on planktonic cells; assay type: cell-based; conditions: Staphylococcus epidermidis, ATCC35984; for MIC: S. epidermidis ATCC 35984, 24 h at 37°C, read-out: MIC; for MBC: S. epidermidis ATCC 35984, read-out: MBC
Procedure: as §1, §5, §2

[7] = tested on: S. aureus ATCC 29213; assay: Broth microdilution MIC/MBC on planktonic cells; assay type: cell-based; conditions: Staphylococcus aureus, ATCC29213; for MIC: S. aureus ATCC 29213, 24 h at 37°C, read-out: MIC; for MBC: S. aureus ATCC 29213, read-out: MBC
Procedure: as §1, §5, §2

[8] = tested on: Gram positive and Gram negative tested bacteria; assay: Broth microdilution MIC/MBC, range over the bacterial panel; assay type: cell-based; conditions: Gram positive and Gram negative tested bacteria
Procedure: as §1
as §5, with “plates. […]” for “plates.”

Cc1ccc(C(C)C)cc1OC(=O)[C@@H]1CSCN1 [codrug 8, TFA·TCA-CAR]
MIC [1]: 600 µg/mL
MFC [1]: 600 µg/mL
hemolysis at 1 h [2]: > 50%
concentration at which hemolytic activity is over 50% [3]: 3 mg/mL
MIC [4]: 10000 µg/mL
MBC [4]: 10000 µg/mL
MIC [5]: 5000 µg/mL
MBC [5]: 5000 µg/mL
MIC [6]: 2500 µg/mL
MBC [6]: 5000 µg/mL
MIC [7]: 5000 µg/mL
MBC [7]: 10000 µg/mL

CSCC[C@H](NC(C)=O)C(=O)Oc1cc(C(C)C)ccc1C [codrug 5, N-Ac-Met-CAR]
MIC [1]: 5000 µg/mL (≈ 15.5 mM)
MFC [1]: 5000 µg/mL (≈ 15.5 mM)
concentration at which hemolytic activity is over 50% [3]: over 20 mg/mL
MIC [4]: 5000 µg/mL (≈ 15.5 mM)
MBC [4]: 10000 µg/mL (≈ 30.9 mM)
MIC [5]: 10000 µg/mL (≈ 30.9 mM)
MBC [5]: 10000 µg/mL (≈ 30.9 mM)
MIC [6]: 10000 µg/mL (≈ 30.9 mM)
MBC [6]: 10000 µg/mL (≈ 30.9 mM)
MIC [7]: 10000 µg/mL (≈ 30.9 mM)
MBC [7]: 10000 µg/mL (≈ 30.9 mM)

CC(=O)N[C@@H](CS)C(=O)O [NAC, N-Acetyl-cysteine, reference compound]
MIC [1]: 20000 µg/mL (≈ 123 mM)
MFC [1]: 80000 µg/mL (≈ 490 mM)
MIC and MBC values (range over strains) [8]: 5 to 20 mg/mL
MIC [4]: 5000 µg/mL (≈ 30.6 mM)
MBC [4]: 5000 µg/mL (≈ 30.6 mM)
MIC [5]: 5000 µg/mL (≈ 30.6 mM)
MBC [5]: 5000 µg/mL (≈ 30.6 mM)
MIC [6]: 5000 µg/mL (≈ 30.6 mM)
MBC [6]: 5000 µg/mL (≈ 30.6 mM)
MIC [7]: 5000 µg/mL (≈ 30.6 mM)
MBC [7]: 20000 µg/mL (≈ 123 mM)
